{
  "source": "patent US20260248879A1",
  "about": "“METHODS OF USING A GCG/GLP1 CO-AGONIST FOR THERAPY” (ELI LILLY AND COMPANY, priority 2022, published 2026)",
  "system": "patients with T2DM",
  "assay": "Example 1 study: Mixed Meal Tolerance Test (MMTT)",
  "assay_type": "in vivo, human",
  "method": "In respect of Cohort 1, the MMTT is performed at baseline and on Day 80. In respect of Cohort 2, the MMTT is performed at baseline and on Day 108.\nPatients are provided breakfast meals for the MMTTs. Upon awakening, patients consume water to stay hydrated in order to mitigate problems with blood sample collections. Patients are provided individualized breakfast meals for the MMTTs. The total caloric content is approximately 30% of the daily estimated caloric need for weight. The macronutrient composition of the meals is targeted to provide approximately 50% of the calories from carbohydrate, 30% of the calories from fat, and 20% of the calories from protein. Patients are fasted (except for water) for at least 8 hours before each test meal and consume each meal within approximately 20 minutes. Test meals for each patient are kept consistent with respect to calorie and nutrient content across all MMTT assessments in the study.\nFor both parts of the study, the patient is not allowed to consume water (apart from fluid provided with the meal) for approximately 3 hours post MMTT until BOD POD® measurement.\nWhile resident in the CRU, patients may not consume any food or caloric drinks other than that provided by the CRU. When not resident in the CRU, patients may resume their regular diet. The actual time of meal start and completion, total calories, and amount of meal (%) consumed in the MMTT are recorded.",
  "key": {"[1]": {"details": "Cohort 1, escalated to 4.5 mg, Day 80"}, "[2]": {"details": "Cohort 2, escalated to 10.0 mg, Day 108"}},
  "note": "Values joined by “and” are separate entries in the source; they are usually repeats but may differ in a detail not shown here. Equal values may be shown once. Marks after values point to notes of the source that are not given here.",
  "data": [
    {"smiles": "CC(C)C[C@H](NC(=O)[C@H](CC(C)C)NC(=O)[C@H](Cc1c[nH]c2ccccc12)NC(=O)[C@H](CCC(=O)O)NC(=O)[C@@H](NC(=O)[C@H](Cc1ccccc1)NC(=O)[C@H](CCC(=O)O)NC(=O)[C@H](CCCCNC(=O)COCCOCCNC(=O)COCCOCCNC(=O)CC[C@H](NC(=O)CCCCCCCCCCCCCCCCCCC(=O)O)C(=O)O)NC(=O)[C@H](C)NC(=O)[C@H](CCCCN)NC(=O)[C@H](CCCCN)NC(=O)[C@H](CCC(=O)O)NC(=O)[C@H](CC(=O)O)NC(=O)[C@H](CC(C)C)NC(=O)[C@H](Cc1ccc(O)cc1)NC(=O)[C@H](CCCCN)NC(=O)[C@H](CO)NC(=O)[C@H](Cc1ccc(O)cc1)NC(=O)[C@H](CC(=O)O)NC(=O)[C@H](CO)NC(=O)[C@@H](NC(=O)[C@H](Cc1ccccc1)NC(=O)[C@@H](NC(=O)CNC(=O)[C@H](CCC(N)=O)NC(=O)C(C)(C)NC(=O)[C@@H](N)Cc1c[nH]cn1)[C@@H](C)O)[C@@H](C)O)C(C)C)C(=O)N[C@@H](CCC(=O)O)C(=O)NCC(=O)NCC(=O)N1CCC[C@H]1C(=O)N[C@@H](CO)C(=O)N[C@@H](CO)C(=O)NCC(N)=O", "note": "[Compound 1]", "values": [
      {"measurement": "C-peptide AUC(0-3 h) during MMTT, mean", "setting": "Cohort 1 (1.5-4.5 mg QW), Day 80, baseline 4391.4", "result": 5850.1, "unit": "pmol·h/L"},
      {"measurement": "C-peptide AUC(0-3 h) during MMTT, change from baseline", "setting": "Cohort 1, Day 80", "result": "1474.6* pmol · h/L"},
      {"measurement": "Disposition index, change from baseline", "setting": "Cohort 1, Day 80", "result": "−0.235"},
      {"measurement": "First PH ISI-S, change from baseline", "setting": "Cohort 1, Day 80", "result": 12090.422},
      {"measurement": "Glucagon AUC(0-3 h) during MMTT, change from baseline", "setting": "Cohort 1, Day 80", "result": -32.50, "unit": "pmol·h/L"},
      {"measurement": "Glucose AUC(0-3 h) during MMTT, change from baseline", "setting": "Cohort 1, Day 80", "result": -14.37, "unit": "mmol·h/L"},
      {"measurement": "HOMA2-B, change from baseline", "setting": "Cohort 1, Day 80", "result": 22.971},
      {"measurement": "HOMA2-IR, change from baseline", "setting": "Cohort 1, Day 80", "result": "−0.434"},
      {"measurement": "ISI-M (Matsuda Index), change from baseline", "setting": "Cohort 1, Day 80", "result": 0.237},
      {"measurement": "MMTT glucose AUC 0-3 hours, approximate decrease from baseline", "setting": "Cohort 1, Day 80", "result": "~40", "unit": "%"},
      {"measurement": "Oxyntomodulin AUC(0-3 h) during MMTT, change from baseline", "setting": "Cohort 1, Day 80", "result": -41.594, "unit": "pmol·h/L"},
      {"measurement": "Second PH ISI-S, change from baseline", "setting": "Cohort 1, Day 80", "result": 2273.29},
      {"measurement": "Disposition index, mean", "setting": "Cohort 1, Day 80, baseline 1.033", "result": 0.642},
      {"measurement": "ISI-M (Matsuda Index), mean", "setting": "Cohort 1, Day 80, baseline 3.568", "result": 3.567},
      {"measurement": "HOMA2-IR, mean", "setting": "Cohort 1, Day 80, baseline 4.704", "result": 4.271},
      {"measurement": "HOMA2-B, mean", "setting": "Cohort 1, Day 80, baseline 15.791", "result": 38.762},
      {"measurement": "Glucose AUC(0-3 h) during MMTT, mean", "setting": "Cohort 1, Day 80, baseline 43.06", "result": "25.76 mmol·h/L and 25.72 mmol·h/L"},
      {"measurement": "Glucagon AUC(0-3 h) during MMTT, mean", "setting": "Cohort 1, Day 80, baseline 64.98", "result": 27.93, "unit": "pmol·h/L"},
      {"measurement": "Oxyntomodulin AUC(0-3 h) during MMTT, mean", "setting": "Cohort 1, Day 80, baseline 89.822", "result": 58.042, "unit": "pmol·h/L"},
      {"measurement": "Second PH ISI-S (second phase Stumvoll Index), mean", "setting": "Cohort 1, Day 80, baseline −6253.26", "result": "−3634.241"},
      {"measurement": "First PH ISI-S (first phase Stumvoll Index), mean", "setting": "Cohort 1, Day 80, baseline −33534.1", "result": "−19605.805"},
      {"measurement": "MMTT C-peptide AUC 0-3 hours, approximate increase from baseline", "setting": "[1]", "result": "~33", "unit": "%"},
      {"measurement": "MMTT glucagon AUC 0-3 hours, approximate decrease from baseline", "setting": "[1]", "result": "~57", "unit": "%"},
      {"measurement": "MMTT insulin AUC 0-3 hours, approximate increase from baseline", "setting": "[1]", "result": "~51", "unit": "%"},
      {"measurement": "Matsuda index (ISI-M) versus baseline", "setting": "[1]", "result": "no change from baseline"},
      {"measurement": "MMTT insulin mean area under the curve 0-3 hours", "setting": "Cohort 1, escalated to 4.5 mg, Day 80, baseline 125.233", "result": 189.435, "unit": "h*mIU/L"},
      {"measurement": "C-peptide AUC(0-3 h) during MMTT, mean", "setting": "Cohort 2 (2-10 mg QW), Day 108, baseline 3604.1", "result": 3147.4, "unit": "pmol·h/L"},
      {"measurement": "C-peptide AUC(0-3 h) during MMTT, change from baseline", "setting": "Cohort 2, Day 108", "result": -897.4, "unit": "pmol·h/L"},
      {"measurement": "Disposition index, change from baseline", "setting": "Cohort 2, Day 108", "result": "−0.198"},
      {"measurement": "First PH ISI-S (first phase Stumvoll Index), mean", "setting": "Cohort 2, Day 108", "result": "−19372.347"},
      {"measurement": "First PH ISI-S, change from baseline", "setting": "Cohort 2, Day 108", "result": 11985.334},
      {"measurement": "Glucagon AUC(0-3 h) during MMTT, change from baseline", "setting": "Cohort 2, Day 108", "result": -40.55, "unit": "pmol·h/L"},
      {"measurement": "Glucose AUC(0-3 h) during MMTT, change from baseline", "setting": "Cohort 2, Day 108", "result": -15.73, "unit": "mmol·h/L"},
      {"measurement": "HOMA2-B, change from baseline", "setting": "Cohort 2, Day 108", "result": 3.824},
      {"measurement": "HOMA2-IR, change from baseline", "setting": "Cohort 2, Day 108", "result": "−1.071"},
      {"measurement": "ISI-M (Matsuda Index), change from baseline", "setting": "Cohort 2, Day 108", "result": 5.905},
      {"measurement": "Oxyntomodulin AUC(0-3 h) during MMTT, change from baseline", "setting": "Cohort 2, Day 108", "result": -49.843, "unit": "pmol·h/L"},
      {"measurement": "Second PH ISI-S, change from baseline", "setting": "Cohort 2, Day 108", "result": 2252.292},
      {"measurement": "Disposition index, mean", "setting": "Cohort 2, Day 108, baseline 1.276", "result": 1.265},
      {"measurement": "HOMA2-IR, mean", "setting": "Cohort 2, Day 108, baseline 2.7", "result": 1.325},
      {"measurement": "ISI-M (Matsuda Index), mean", "setting": "Cohort 2, Day 108, baseline 4.616", "result": 10.7},
      {"measurement": "HOMA2-B, mean", "setting": "Cohort 2, Day 108, baseline 9.108", "result": 12.077},
      {"measurement": "Glucose AUC(0-3 h) during MMTT, mean", "setting": "Cohort 2, Day 108, baseline 38.27", "result": 23.74, "unit": "mmol·h/L"},
      {"measurement": "Glucagon AUC(0-3 h) during MMTT, mean", "setting": "Cohort 2, Day 108, baseline 39.89", "result": 7.61, "unit": "pmol·h/L"},
      {"measurement": "Oxyntomodulin AUC(0-3 h) during MMTT, mean", "setting": "Cohort 2, Day 108, baseline 124.741", "result": 66.077, "unit": "pmol·h/L"},
      {"measurement": "Second PH ISI-S (second phase Stumvoll Index), mean", "setting": "Cohort 2, Day 108, baseline −5889.19", "result": "−3593.001"},
      {"measurement": "MMTT C-peptide AUC 0-3 hours, approximate decrease from baseline", "setting": "[2]", "result": "~13", "unit": "%"},
      {"measurement": "MMTT glucagon AUC 0-3 hours, approximate decrease from baseline", "setting": "[2]", "result": "~81", "unit": "%"},
      {"measurement": "MMTT glucose AUC 0-3 hours, approximate decrease from baseline", "setting": "[2]", "result": "~38", "unit": "%"},
      {"measurement": "MMTT insulin AUC 0-3 hours, approximate decrease from baseline", "setting": "[2]", "result": "~10", "unit": "%"},
      {"measurement": "Matsuda index (ISI-M), approximate increase from baseline", "setting": "[2]", "result": "approximately 132%"},
      {"measurement": "MMTT insulin area under the curve 0-3 hours", "setting": "Cohort 2, escalated to 10.0 mg, Day 108, baseline 77.692", "result": 69.847, "unit": "h*mIU/L"},
      {"measurement": "sMMTT total cholesterol levels", "setting": "Cohort 2 doses (FIG. 7b)", "result": "substantially reduced"},
      {"measurement": "sMMTT HDL cholesterol levels", "setting": "Cohort 2 doses (FIG. 7e)", "result": "substantially reduce"},
      {"measurement": "sMMTT LDL cholesterol levels", "setting": "Cohort 2 doses (FIG. 7f)", "result": "substantially reduce"},
      {"measurement": "sMMTT triglyceride levels", "setting": "Cohort 2 doses (FIG. 7h)", "result": "substantially reduce"},
      {"measurement": "reduction of glucagon secretion from baseline in response to mixed meals", "setting": "dose up to 4.5 mg", "result": "greater than 50%"},
      {"measurement": "reduction of glucagon secretion from baseline in response to mixed meals", "setting": "dose up to 10 mg", "result": "greater than 80%"}
    ]}
  ]
}
